# From patent US20170313974A1, “Modulation of Tissue Fatty Acid Composition of a Host by Human Gut Bacteria” (University College Cork, National University of Ireland, priority 2007, published 2017)
# Experiments:
# Type in all cases: in vivo
# [1] = tested on: Myeloperoxidase (MPO) activity in colonic homogenates; experiment: Colonic mucosal myeloperoxidase (MPO) activity in SCID mice with colitis; settings: 10 weeks, mean ± SD, n = 8
# Experimental: (§1) Materials and Methods Severe Combined Immuno Deficient (SCID) mice were used in this study, which had been induced with colitis through adoptive transfer of splenic CD4^+ CD45RB^high T cells from BALB/c mice. […] Ten weeks after colitis induction, cytokine production by splenocytes was measured in vitro by ELISA, myeloperoxidase (MPO) activity was determined in colonic homogenates and fatty acid composition in liver, adipose tissue, cecum and colon was determined by gas liquid chromatography (GLC). Similar studies have also been conducted in pigs (data not shown here) and similar results obtained.
# (§2) SCID mice were purchased from Harlan ltd. (Briester, Oxon, UK) at 6 weeks of age and fed a normal diet for 1 week to stabilize all metabolic conditions. Each cage contained one mouse. Mice were exposed to a 12-h light:dark cycle and maintained at a constant temperature of 25° C. One week after arrival, mice were divided into five groups for different dietary treatments (Table I).
# SCID mice were induced with colitis through adoptive transfer of the CD4^+ CD45RB^high subpopulation of CD4+ T cells from normal BALB/c mice (Mackay et al. 1998). […]
# Myeloperoxidase activity was measured according to the method by Krawisz et al. (24). […] The absorbance (OD) was measured spectrophotometrically at 450 nm at 1 min intervals for 15 min. […] Results are expressed as U/mg protein.
# [2] = tested on: splenocytes; experiment: Cytokine production by stimulated splenocytes of fed SCID mice with colitis; settings: compared to control
# Experimental: as §1
# Cytokine production in response to defined stimuli, in vitro, was measured using enzyme-linked immunosorbent assay (ELISA). Splenocyte isolation was performed using an erythrocyte lysing kit (R&D Systems). The spleens of all mice were removed at the time of sacrifice, blotted on filter paper and weighed. Each spleen was immediately placed in Hanks' buffer containing 10% fetal calf serum. The spleen was teased apart and sieved through a cell strainer into a 50 ml centrifuge tube. Cells were centrifuged for 10 minutes at 200 g. The cells were resuspended in 2 ml M-lyse buffer, which lyses red blood cells, and incubated for 8 minutes at room temperature. Lysis was deactivated using wash buffer and the cell suspension was centrifuged for 10 minutes at 200 g. Cells were resuspended in DMEM (10% fetal calf serum, 1% Pen/Strep, Sigma) and diluted to 1×10^6 cells/ml for in vitro culturing. The isolated lymphocytes were cocultured with the proinflammatory bacterium Salmonella typhimurium UK1 (1×10^6 cells/ml) and with antiCD3-antiCD28 monoclonal antibodies for 48 hours at 37° C. Cell supernatants were isolated and stored at −80° C. Cytokine analysis was performed on the supernatants using a BD™ Cytometric Bead Array (CBA) Mouse Inflammation Kit (BD Biosciences, US).
# [3] = tested on: SCID mice; experiment: Tissue fatty acid composition, SCID mouse colitis feeding study (10 weeks)
# Experimental: as §1, §2
# For linoleic acid and c9t11 CLA treatment, a powdered diet blended with the drug was administered for 10 weeks to yield a dose of drug at approximately 90 mg/day/mouse (this is based on preliminary experiments by Bassaganya-Riera et al. (22) that established an optimal dose of fatty acids of 1 g/100 g of diet).
# After the adoptive transfer, mice were weighed three times a week and examined for clinical signs of disease associated with colitis (ie. rectal bleeding, diarrhoea and rectal prolapse). After 10 weeks on experimental diets, the mice were sacrificed by cervical dislocation. Livers, adipose tissue, spleens, colons and cecums were removed from the carcasses, blotted dry on filter paper, weighed and frozen in liquid nitrogen. All samples were stored at −80° C. until processed. The colon was divided into different sections for MPO activity and fatty acid composition.
# (§3) Lipids were extracted with Chloroform:Methanol 2:1 v/v according to Folch et al. (25). Briefly, tissue or faecal samples, ˜1 g liver, 300 mg small intestine, 200 mg adipose tissue, 250 mg colon, 800 mg cecum or 100 mg feaces were homogenised in over a 25 fold excess of CHCl3:CH3OH (2:1 v/v) and washed with 0.88% KCl solution. Excess solvent was dried down under a gentle stream of N2 at 40° C. and lipids were stored at −20° C. in 1 ml chloroform. Fatty acid methyl esters (FAME) were prepared using first 10 ml 0.5N NaOH in methanol for 10 min at 90° C. followed by 10 ml 14% BF3 in methanol for 10 min at 90° C. (26). FAME was recovered with hexane. Prior to GC analysis samples were dried over 0.5 g of anhydrous sodium sulphate for an hour and stored at −20° C. FAME were separated by gas liquid chromatography (GLC Varian 3400, Varian, Walnut Creek, Calif. USA fitted with a flame ionization detector) using a Chrompack CP Sil 88 column (Chrompack, Middleton, The Netherlands, 100 m×0.25 mm i.d., 0.20 μm film thickness) and He as a carrier gas. The column oven was programmed to be held initially at 80° C. for 8 minutes then increased 8.5° C./min to a final column temperature of 200° C. The injection volume used was 0.6 μl with automatic sample injection with a splitless on SPI on-column temperature programmable injector. Data was recorded and analysed on a Minichrom PC system (VG Data System, Manchester, U.K.). Tri-heptadecanoate (Sigma) was used as an internal standard, and peaks were identified with reference to retention times of fatty acids in a standard mixture. All fatty acid results are shown as mean±SD (n=8) g/100 g FAME.
# [4] = tested on: BALB/c mice; experiment: Tissue and faecal fatty acid composition, BALB/c LA feeding trial (8 weeks)
# Experimental: Male BALB/c mice were purchased from Harlan Ltd. (Briester, Oxon, UK). One week after arrival, these mice were divided into two groups (n=9) for different dietary treatments. […] Group B received 1% LA in their diet. For LA treatment, a powdered diet blended with the drug was administered for 8 weeks to yield a dose of drug at approximately 90 mg/day/mouse (this is based on preliminary experiments by Bassaganya-Riera et al. (1) that established an optimal dose of fatty acids of 1 g/100 g).
# After 8 weeks on experimental diets, the mice were sacrificed by cervical dislocation. Livers, hearts, colons, small intestines and cecums were removed from the carcasses, blotted dry on filter paper, weighed and frozen in liquid nitrogen. All samples were stored at −80° C. until processed.
# as §3
smiles,measurement,setting,value
"CCCCC/C=C\C/C=C\CCCCCCCC(=O)O [LA, linoleic acid]",MPO colon,[1],1.16 ± 0.23 U/mg protein
same,proinflammatory cytokines,[2],no reduction
same,"c9, t11 CLA in cecum digesta","[3]; cecum digesta, mean ± SD, n = 8",0.08 ± 0.02^ g/100 g FAME
same,"c9, t11 CLA in faeces",[3]; faeces,0.09 g/100 g FAME
same,"c9, t11 CLA in liver","[3]; liver, mean ± SD, n = 8",0.01 ± 0.01^2 g/100 g FAME
same,LA in faeces,[4]; faeces after 8 weeks,27.4±7.16
same,"c9, t11 CLA in faeces",[4]; faeces harvested after 8 weeks,0.35±0.25 g/100 g FAME
same,"c9, t11 CLA in large intestine","[4]; large intestine, 8 weeks",0.07±0.02 g/100 g FAME
same,"c9, t11 CLA in liver","[4]; liver, 8 weeks",0.05±0.03 g/100 g FAME
same,"c9, t11 CLA in small intestine","[4]; small intestine, 8 weeks",0.03±0.01
